# Assay results taken from patent publication US20090124587A1, “METHODS FOR TREATING CANCER USING 17alpha-HYDROXYLASE/C17,20-LYASE INHIBITORS” (priority 2007, published 2009).
# Where two headings read alike, the source gives them in different places.
# Experiment: Food effect PK study, two single oral 1000 mg doses of abiraterone acetate, fed (high fat) vs fasted
# Type: in vivo, human
# Details: for concentration at 1.017 h: read-out: Abiraterone Concentration in plasma; for clearance: read-out: Cl F obs (converted); for Vd/F: read-out: Vz F obs; for concentration at 1.033 hr: sample time 1.033 hr; for concentration at 6 hr: sample time 6.000 hr; for concentration at 8 hr: sample time 8.000 hr; for concentration at 1 hr: sample time 1.000 hr; for concentration at 7.983 hr: sample time 7.983 hr
# Procedure: To measure the amount of abiraterone and abiraterone acetate in the samples, these compounds were extracted from 100 uL human plasma using solid phase extraction (SPE) with cation mixed-mode polymer cartridges. Extracts were evaporated to dryness before reconstitution and analysis. Chromatography was carried out using a Luna™ C5 column (5 μm, 50 mm×2.1 mm id) with a gradient mobile phase consisting of 10 mM ammonium acetate and 2% propan-2-ol in acetonitrile. The flow rate was 0.2 mL/min and the run time 10.5 minutes. Abiraterone and abiraterone acetate were ionized using the electrospray interface in positive ion mode. Detection of analytes was via tandem mass spectrometry (MS/MS) in the multiple reaction monitoring (MRM) mode.
# PK modeling was conducted using a non-compartmental model, extra vascular input for plasma with WinNonLin Software®. Pharmacokinetic parameters estimated in the model include:
# Based on the above results, the PK parameters for a single dose of 1000 mg/day of abiraterone acetate were further studied in the 3 subjects who were administered the 1000 mg/day dose and in 3 additional subjects. Two single oral doses (1000 mg) of abiraterone acetate were administered separately, one concomitantly with food of high fat content and one in fasting state. The first single dose was administered on day −9 with PK blood samples being taken at 1, 2, 4, 6, 8, 24, 48 and 72 hours post dose. The second single dose was administered on day −3 with PK blood samples being taken at 1, 2, 4, 6, 8, 24 and 48 hours post dose for analysis.
# [1] = human, plasma, oral, 1000 mg, Patient 13, 1000 mg, Fasted
# [2] = human, plasma, oral, 1000 mg, Patient 13, 1000 mg, Fed
# [3] = human, plasma, oral, 1000 mg, Patient 13, Fasted
# [4] = human, plasma, oral, 1000 mg, Patient 13, Fed
# [5] = human, plasma, oral, 1000 mg, Patient 14, 1000 mg, Fasted
# [6] = human, plasma, oral, 1000 mg, Patient 14, 1000 mg, Fed
# [7] = human, plasma, oral, 1000 mg, Patient 14, Fasted
# [8] = human, plasma, oral, 1000 mg, Patient 14, Fed
# [9] = human, plasma, oral, 1000 mg, Patient 15, 1000 mg, Fasted
# [10] = human, plasma, oral, 1000 mg, Patient 15, 1000 mg, Fed
# [11] = human, plasma, oral, 1000 mg, Patient 15, Fasted
# [12] = human, plasma, oral, 1000 mg, Patient 15, Fed
structure (smiles),measurement,setting,value
C[C@]12CC[C@H](O)CC1=CC[C@@H]1[C@@H]2CC[C@]2(C)C(c3cccnc3)=CC[C@@H]12 [Abiraterone],Abiraterone plasma levels with food in comparison with fasting,"1000 mg, concomitantly with food vs fasting",higher
same,HL,"Patient 13, 1000 mg, Fasted",10.2 h
same,HL,"Patient 13, 1000 mg, Fed",10.7 h
same,concentration at 1.017 h,"Patient 13, Fasted, 1000 mg, pre-dose (day −3)",0.0 nM
same,concentration at 1.017 h,"Patient 13, Fed, 1000 mg, pre-dose (day −9)",0.0 nM
same,Abiraterone Concentration in plasma,"Patient 13, Fed, 1000 mg, sample time 72.000 hr",BLLOQ^1
same,HL,"Patient 14, 1000 mg, Fasted",6.6 h
same,HL,"Patient 14, 1000 mg, Fed",8.8 h
same,concentration at 1.017 h,"Patient 14, Fasted, 1000 mg, pre-dose (day −9)",0.0 nM
same,Abiraterone Concentration in plasma,"Patient 14, Fasted, 1000 mg, sample time 48.217 hr",BLLOQ
same,concentration at 1.017 h,"Patient 14, Fed, 1000 mg, pre-dose (day −3)",0.0 nM
same,HL,"Patient 15, 1000 mg, Fasted",6.6 h
same,HL,"Patient 15, 1000 mg, Fed",8.0 h
same,Abiraterone Concentration in plasma,"Patient 15, Fasted, 1000 mg, pre-dose (day −3)",BLLOQ
same,concentration at 1.017 h,"Patient 15, Fed, 1000 mg, pre-dose (day −9)",0.0 nM
same,Abiraterone Concentration in plasma,"Patient 15, Fed, 1000 mg, sample time 2.000 hr",BLLOQ
same,Abiraterone Concentration in plasma,"Patient 15, Fed, 1000 mg, sample time 70.100 hr",BLLOQ
same,HL,"Patient 19, 1000 mg, Fasted",8.0 h
same,HL,"Patient 19, 1000 mg, Fed",10.0 h
same,concentration at 1.017 h,"Patient 19, Fasted, 1000 mg, pre-dose (day −9)",0.0 nM
same,Abiraterone Concentration in plasma,"Patient 19, Fasted, 1000 mg, sample time 71.950 hr",BLLOQ
same,concentration at 1.017 h,"Patient 19, Fed, 1000 mg, pre-dose (day −3)",0.0 nM
same,HL,"Patient 20, 1000 mg, Fasted",15.3 h
same,HL,"Patient 20, 1000 mg, Fed",18.3 h
same,concentration at 1.017 h,"Patient 20, Fasted, 1000 mg, pre-dose (day −3)",5.1 nM
same,Abiraterone Concentration in plasma,"Patient 20, Fed, 1000 mg, pre-dose (day −9)",BLLOQ
same,HL,"Patient 21, 1000 mg, Fasted",12.6 h
same,HL,"Patient 21, 1000 mg, Fed",9.7 h
same,concentration at 1.017 h,"Patient 21, Fasted, 1000 mg, pre-dose (day −9)",0 nM
same,Abiraterone Concentration in plasma,"Patient 21, Fed, 1000 mg, pre-dose (day −3)",BLLOQ
same,difference in mean drug levels between the dosing regimes (fed vs fasted),extended cohort of six patients,Up to a two fold difference
same,clearance,[1],12600 mL/min
same,Vd/F,[1],11100 L
same,clearance,[2],4240 mL/min
same,Vd/F,[2],3920 L
same,AUC(0-inf),[3],3.78 µM·h
same,AUC(0-t),[3],3.7 µM·h
same,Cmax,[3],548 nM
same,Tmax,[3],1.03 h
same,concentration at 1.033 hr,[3],548 nM
same,concentration at 2.017 hr,"human, plasma, oral, 1000 mg, Patient 13, Fasted, sample time 2.017 hr",500 nM
same,concentration at 4 hr,"human, plasma, oral, 1000 mg, Patient 13, Fasted, sample time 4.000 hr",304 nM
same,concentration at 6 hr,[3],104 nM
same,concentration at 8 hr,[3],89.4 nM
same,concentration at 24.667 hr,"human, plasma, oral, 1000 mg, Patient 13, Fasted, sample time 24.667 hr",34.1 nM
same,concentration at 48.117 hr,"human, plasma, oral, 1000 mg, Patient 13, Fasted, sample time 48.117 hr",5.8 nM
same,AUC(0-inf),[4],11.2 µM·h
same,AUC(0-t),[4],10.8 µM·h
same,Cmax,[4],1180 nM
same,Tmax,[4],4 h
same,concentration at 1 hr,[4],130 nM
same,concentration at 2 h,"human, plasma, oral, 1000 mg, Patient 13, Fed, sample time 2.000 hr",675 nM
same,concentration at 4 h,"human, plasma, oral, 1000 mg, Patient 13, Fed, sample time 4.000 hr",1180 nM
same,concentration at 7.983 hr,[4],392 nM
same,concentration at 23.983 hr,"human, plasma, oral, 1000 mg, Patient 13, Fed, sample time 23.983 hr",93.7 nM
same,concentration at 48.5 hr,"human, plasma, oral, 1000 mg, Patient 13, Fed, sample time 48.500 hr",26.8 nM
same,clearance,[5],32600 mL/min
same,Vd/F,[5],18500 L
same,clearance,[6],4050 mL/min
same,Vd/F,[6],3070 L
same,AUC(0-inf),[7],1.46 µM·h
same,AUC(0-t),[7],1.35 µM·h
same,Cmax,[7],205 nM
same,Tmax,[7],4.07 h
same,concentration at 1 hr,[7],76.3 nM
same,concentration at 2 hr,"human, plasma, oral, 1000 mg, Patient 14, Fasted, sample time 2.000 hr",82.5 nM
same,concentration at 4.067 hr,"human, plasma, oral, 1000 mg, Patient 14, Fasted, sample time 4.067 hr",205 nM
same,concentration at 6.05 hr,"human, plasma, oral, 1000 mg, Patient 14, Fasted, sample time 6.050 hr",99.8 nM
same,concentration at 8.017 hr,"human, plasma, oral, 1000 mg, Patient 14, Fasted, sample time 8.017 hr",48.6 nM
same,concentration at 24.017 hr,"human, plasma, oral, 1000 mg, Patient 14, Fasted, sample time 24.017 hr",12.1 nM
same,concentration at 71.333 hr,"human, plasma, oral, 1000 mg, Patient 14, Fasted, sample time 71.333 hr",0 nM
same,AUC(0-inf),[8],11.8 µM·h
same,AUC(0-t),[8],11.6 µM·h
same,Cmax,[8],2210 nM
same,Tmax,[8],1.03 h
same,concentration at 1.033 hr,[8],2210 nM
same,concentration at 2.033 hr,"human, plasma, oral, 1000 mg, Patient 14, Fed, sample time 2.033 hr",1770 nM
same,concentration at 4 hr,"human, plasma, oral, 1000 mg, Patient 14, Fed, sample time 4.000 hr",464 nM
same,concentration at 6 hr,[8],516 nM
same,concentration at 7.983 hr,[8],335 nM
same,concentration at 24.083 hr,"human, plasma, oral, 1000 mg, Patient 14, Fed, sample time 24.083 hr",79.7 nM
same,concentration at 47.7 hr,"human, plasma, oral, 1000 mg, Patient 14, Fed, sample time 47.700 hr",14.2 nM
same,clearance,[9],18400 mL/min
same,Vd/F,[9],10500 L
same,clearance,[10],4610 mL/min
same,Vd/F,[10],3190 L
same,AUC(0-inf),[11],2.59 µM·h
same,AUC(0-t),[11],2.37 µM·h
same,Cmax,[11],420 nM
same,Tmax,[11],2.98 h
same,concentration at 1 hr,[11],8.7 nM
same,concentration at 2.983 hr,"human, plasma, oral, 1000 mg, Patient 15, Fasted, sample time 2.983 hr",420 nM
same,concentration at 3.967 hr,"human, plasma, oral, 1000 mg, Patient 15, Fasted, sample time 3.967 hr",242 nM
same,concentration at 5.983 hr,"human, plasma, oral, 1000 mg, Patient 15, Fasted, sample time 5.983 hr",131 nM
same,concentration at 8 hr,[11],111 nM
same,concentration at 22.983 hr,"human, plasma, oral, 1000 mg, Patient 15, Fasted, sample time 22.983 hr",22.4 nM
same,AUC(0-inf),[12],10.3 µM·h
same,AUC(0-t),[12],10.1 µM·h
same,Cmax,[12],1120 nM
same,Tmax,[12],6.08 h
same,concentration at 1 hr,[12],0 nM
